Tests used:
HIV = tested on: HIV; parameters: method as in earlier work; settings: cited from earlier work
clinical [1] = settings: human, in vivo; for AUC(0-t): AUC0-24 PBMC
clinical [2] = settings: human, in vivo, AUC0-24 Plasma
[3] = human, in vivo

CC(C)CN(C[C@@H](O)[C@H](Cc1ccccc1)NC(=O)O[C@H]1CO[C@H]2OCC[C@H]21)S(=O)(=O)c1ccc(N)cc1 [DRV, darunavir]
90% effective concentration (EC90) (HIV): 200 ng/mL | AUC(0-t) (clinical [1]): 17500 ng·h/mL

C[C@@H]1CCO[C@H]2Cn3cc(C(=O)NCc4ccc(F)cc4F)c(=O)c(O)c3C(=O)N12 [DTG, dolutegravir]
AUC0-24 Plasma (human, in vivo): 30967 ng·h/mL | AUC(0-t) (clinical [2]): 31600 ng·h/mL | AUC(0-t) (clinical [1]): 14900 ng·h/mL | Kp (clinical [1]; Ctrough in PBMC relative to plasma, throughout the protocol): ~0.25 | Kp (clinical [1]; PBMC/Plasma Ctrough ratio): 0.19 | AUC0-24 PBMC [3]: 12807 ng·h/mL

CO[C@H]1/C=C/O[C@@]2(C)Oc3c(C)c(O)c4c(O)c(c(/C=N/N5CCN(C)CC5)c(O)c4c3C2=O)NC(=O)/C(C)=C\C=C\[C@H](C)[C@H](O)[C@@H](C)[C@@H](O)[C@@H](C)[C@H](OC(C)=O)[C@@H]1C [RIF, rifampicin]
Cmax Plasma (median, DRV/RTV 1600/200 QD + DTG + RIF (n = 4)): 11240 ng/mL

CC(C)c1nc(CN(C)C(=O)N[C@H](C(=O)N[C@@H](Cc2ccccc2)C[C@H](O)[C@H](Cc2ccccc2)NC(=O)OCc2cncs2)C(C)C)cs1 [RTV, ritonavir]
AUC(0-t) (clinical [2]): 6070 ng·h/mL | AUC(0-t) (clinical [1]): 9830 ng·h/mL
